Data reported in patent US20110275643A1, “AROYLQUINOLINE COMPOUNDS” (NATIONAL HEALTH RESEARCH INSTITUTES, priority 2010, published 2011).
Where two headings read alike, the source gives them in different places.

Tests used:
[1] = test system: oral epidermoid carcinoma KB cells; experiment: In vitro cell growth inhibition, methylene blue dye assay, KB cells; type: cell-based, Human
Method: (§1) Human oral epidermoid carcinoma KB cells, non-small-cell lung carcinoma H460 cells, colorectal carcinoma HT29 cells and stomach carcinoma MKN45 cells were maintained in RMPI-1640 medium supplied with 5% fetal bovine serum (FBS). […] Cells in logarithmic phase were cultured at a density of 5000 cells/mL/well in a 24-well plate. KB-VIN10 cells were cultured in drug-free medium for 3 days prior to use. The cells were exposed to various concentrations of the test drugs for 72 hours. The methylene blue dye assay was used to evaluate the effect of the test compounds on cell growth (Finlay et al., 1984).

[2] = test system: non-small-cell lung carcinoma H460 cells; experiment: In vitro cell growth inhibition, methylene blue dye assay, H460 cells; type: cell-based, Human; conditions: read-out: IC50 on the proliferation of cells, H460
Method: as §1

[3] = test system: colorectal carcinoma HT29 cells; experiment: In vitro cell growth inhibition, methylene blue dye assay, HT29 cells; type: cell-based, Human; conditions: read-out: IC50 on the proliferation of cells, HT29
Method: as §1

[4] = test system: stomach carcinoma MKN45 cells; experiment: In vitro cell growth inhibition, methylene blue dye assay, MKN45 cells; type: cell-based, Human; conditions: read-out: IC50 on the proliferation of cells, MKN45
Method: as §1

[5] = test system: KB-VIN10 cells (overexpression of P-gp170/MDR); experiment: In vitro cell growth inhibition, methylene blue dye assay, MDR-positive KB-VIN10 cells; type: cell-based, Human; conditions: read-out: IC50 on the proliferation of cells, KB-VIN10
Method: as §1

[6] = test system: MAP-rich tubulin; experiment: Tubulin polymerization in vitro assay (turbidimetric); type: biochemical, bovine; conditions: 37° C., 30 minutes, read-out: Inhibition of tubulin polymerization IC50 ± SD
Method: Turbidimetric assays (Liou et al., 2004; Kuo et al., 2004) of microtubules were performed as described by Bollag et al. 1995. In brief, microtubule-associated protein (MAP)-rich tubulin (from bovine brain, Cytoskeleton, Denver, Col.) has been dissolved in reaction buffer (100 mM PIPES (1,4-piperazinediethanesulfulfonic acid, pH 6.9), 2 mM magnesium chloride (MgCl2), 1 mM GTP (guanosine triphosphate)) in preparing of 4 mg/mL tubulin solution. Tubulin solution (240 μg MAP-rich tubulin per well) was placed in 96-well microtiter plate in the presence of test compounds or 2% (v/v) DMSO (dimethyl sulfoxide) as vehicle control. The increase in absorbance was measured at 350 nm in a PowerWave X Microplate Reader (Bio-Tek Instruments, Winooski, Vt.) at 37° C. and recorded every 30 seconds for 30 minutes.

[7] = test system: colchicine-binding site of tubulin; experiment: Tubulin competition-binding scintillation proximity assay ([3H]colchicine); conditions: for Inhibition of [3H]colchicine binding (% ± SD), 1 μM inhibitor / Inhibition of [3H]colchicine binding (% ± SD), 5 μM inhibitor: Tubulin at 1 μM, [3H]colchicine at 5 μM
Method: This assay was performed as described by Tahir et al., 2003. […] Then 80 μg of Streptavidin-labeled SPA (scintillation proximity assay) beads were added to each reaction mixture. Then the radioactive counts were directly measured by a scintillation counter.

[8] = test system: five cancer cell lines (KB, H460, HT29, MKN45, KB-VIN10); experiment: Antiproliferative activity, mean over five cancer cell lines; type: cell-based, Human; conditions: for IC50: Homo sapiens, read-out: mean IC50 value against five cancer cell lines
Method: The synthesized compounds 5 to 17 were evaluated for antiproliferative activities against four carcinoma cells, oral epidermoid carcinoma KB cells, non-small-cell lung carcinoma H460 cells, colorectal carcinoma HT29 cells and stomach carcinoma MKN45 cells, as well as the MDR-positive cell lines KB-VIN10, that overexpressed P-gp 170/MDR (Table 1). The controls were compounds 1 and 3.
as §1

[9] = Homo sapiens, KB cells, 72 hours, mean ± SD, read-out: IC50 on the proliferation of cells, KB
[10] = Homo sapiens, NCI-H460, H460 cells, 72 hours, mean ± SD
[11] = Homo sapiens, HT-29, HT29 cells, 72 hours, mean ± SD
[12] = Homo sapiens, MKN-45, MKN45 cells, 72 hours, mean ± SD
[13] = Homo sapiens, KB-VIN10 cells, 72 hours, mean ± SD
[14] = mean of KB, H460, HT29, MKN45, KB-VIN10
[15] = Homo sapiens, KB, 72 h, read-out: IC50 on the proliferation of cells, KB

SMILES	IC50 [1, 9] [nM]	IC50 [2, 10] [nM]	IC50 [3, 11] [nM]	IC50 [4, 12] [nM]	IC50 [5, 13] [nM]	IC50 [8, 14] [nM]	melting point [°C]	IC50 [6] [nM]	Inhibition of [3H]colchicine binding (% ± SD), 1 μM inhibitor [7] [%]	Inhibition of [3H]colchicine binding (% ± SD), 5 μM inhibitor [7] [%]	IC50 [1, 15] [nM]	IC50 ([2]; Homo sapiens, NCI-H460, 72 h) [nM]	IC50 ([3]; Homo sapiens, HT-29, 72 h) [nM]	IC50 ([4]; Homo sapiens, MKN-45, 72 h) [nM]	IC50 ([5]; Homo sapiens, KB-VIN10, 72 h) [nM]	IC50 [8] [nM]	other results
COc1cc(C(=O)c2ccc3c(N)c(OC)ccc3n2)cc(OC)c1OC [Compound 15, 5-amino-6-methoxy-2-(3′,4′,5′-trimethoxybenzoyl)quinoline]							184.3 to 185.2	1600	90 ± 0.5	97 ± 1	0.3 ± 0.1	0.4 ± 0.3	0.4 ± 0.2	0.3 ± 0.2	0.2 ± 0.1	0.32	IC50 ([1]; Homo sapiens, KB, read-out: 50% Inhibition concentration (IC50) on the proliferation of KB cells line): 0.31 nM; binding to the colchicine-binding domain in words ([7]; [3H]-colchicine binding assay): strongly bound to the colchicine-binding domain; fold improvement in the IC50 value over compound 12 ([8]; versus compound 12): > 100 fold
COc1ccc(/C=C\c2cc(OC)c(OC)c(OC)c2)cc1O [Compound 1, combretastatin A-4, reference compound]								[…]	87 ± 1	95 ± 2							IC50 ([1]; KB cells, 72 hours, mean ± SD, read-out: IC50 on the proliferation of cells, KB): 2.4 ± 0.2 nM; IC50 ([2]; H460 cells, 72 hours, mean ± SD): 2.6 ± 0.3 nM; IC50 ([3]; HT29 cells, 72 hours, mean ± SD): 835 ± 54 nM; IC50 ([4]; MKN45 cells, 72 hours, mean ± SD): 4.9 ± 0.2 nM; IC50 ([5]; KB-VIN10 cells, 72 hours, mean ± SD): 1.9 ± 0.4 nM
COc1ccc2nc(C(=O)c3cc(OC)c(OC)c(OC)c3)ccc2c1 [Compound 12, 6-methoxy-2-(3′,4′,5′-trimethoxybenzoyl)quinoline]							143 to 145	3500	40 ± 3	68 ± 2	27.2 ± 9.8	61.5 ± 20.5	77 ± 5.7	150 ± 31.2	21.5 ± 0.6	67	

Further lines, with some results ahead:

IC50 [1, 9] [nM]	IC50 [2, 10] [nM]	IC50 [3, 11] [nM]	IC50 [4, 12] [nM]	IC50 [5, 13] [nM]	IC50 [8, 14] [nM]	melting point [°C]	SMILES	IC50 [6] [nM]	Inhibition of [3H]colchicine binding (% ± SD), 1 μM inhibitor [7] [%]	Inhibition of [3H]colchicine binding (% ± SD), 5 μM inhibitor [7] [%]	IC50 [1, 15] [nM]	IC50 ([2]; Homo sapiens, NCI-H460, 72 h) [nM]	IC50 ([3]; Homo sapiens, HT-29, 72 h) [nM]	IC50 ([4]; Homo sapiens, MKN-45, 72 h) [nM]	IC50 ([5]; Homo sapiens, KB-VIN10, 72 h) [nM]	IC50 [8] [nM]	other results
24 ± 6.1	36 ± 5.5	24.6 ± 3	16.3 ± 4.5	21.5 ± 7.7	24.4	132 to 134	COc1cc(C(=O)c2ccc3ncccc3c2)cc(OC)c1OC [Compound 9, 6-(3′,4′,5′-trimethoxybenzoyl)quinoline]	2900	51 ± 3	72 ± 3							
174 ± 33.1	180 ± 25.5	148 ± 17	246 ± 32.7	117 ± 23.7	173	158 to 159	COc1cc(C(=O)c2ccc3ccccc3n2)cc(OC)c1OC [Compound 5, 2-(3′,4′,5′-trimethoxybenzoyl)quinoline]	> 10000									
301 ± 64.4	256 ± 34.6	206 ± 4.9	138 ± 54.4	202 ± 26.2	220	182 to 183	COc1ccc2cc(C(=O)c3cc(OC)c(OC)c(OC)c3)ccc2n1 [Compound 14, 2-methoxy-6-(3′,4′,5′-trimethoxybenzoyl)quinoline]	> 10000									
